Read-outs that look alike come from different tables or passages of the source.
What was measured:
[1] = Stability of polymorph modifications, suspending in acetone for 6 days; assay type: physicochemical
Experimental: Crystallinity of all samples obtained was studied using the method of X-ray powder diffraction (to study the crystallinity structure). Diffraction patterns were obtained at a temperature of 25° C. […] Survey step 0.02° 2θ, angle range 3-45° 2θ. Diffraction patterns obtained were studied in detail using X'Pert HighScore Plus software package.

in vivo [2] = assay: in vivo; design: species or system C57BL/6 line mice; details: mouse, plasma; mesylate polymorphous modification I 59 mg/kg (50 mg/kg as free base), single oral, C57BL/6 mice; read-out: Cmax
Experimental: FIGS. 52A-52B. […] The mean values were determined for each time point on the basis of the individual data obtained from three animals.
The results of the study are given in FIG. 52 and in Tables 14 and 15.

BLK = BLK (Homo sapiens, UniProt P51451); assay: Human kinase panel at 100 nM; assay type: biochemical
Chain of BLK (P51451 whole entry): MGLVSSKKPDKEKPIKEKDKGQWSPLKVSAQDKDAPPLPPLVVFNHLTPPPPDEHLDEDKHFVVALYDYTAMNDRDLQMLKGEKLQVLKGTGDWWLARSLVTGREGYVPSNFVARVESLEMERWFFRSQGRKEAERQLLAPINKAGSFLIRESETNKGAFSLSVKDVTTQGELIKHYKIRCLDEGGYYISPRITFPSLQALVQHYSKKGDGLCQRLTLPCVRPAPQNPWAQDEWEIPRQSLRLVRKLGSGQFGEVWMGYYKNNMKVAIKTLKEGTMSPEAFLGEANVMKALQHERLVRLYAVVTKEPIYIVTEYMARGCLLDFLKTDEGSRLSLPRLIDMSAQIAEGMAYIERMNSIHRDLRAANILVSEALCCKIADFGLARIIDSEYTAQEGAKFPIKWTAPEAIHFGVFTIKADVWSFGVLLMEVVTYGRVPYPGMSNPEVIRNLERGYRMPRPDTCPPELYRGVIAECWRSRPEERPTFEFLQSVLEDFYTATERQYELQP

EPHA2 = EPHA2 (Homo sapiens, UniProt P29317); assay: Human kinase panel at 100 nM; assay type: biochemical
Chain of EPHA2 (P29317 24-976): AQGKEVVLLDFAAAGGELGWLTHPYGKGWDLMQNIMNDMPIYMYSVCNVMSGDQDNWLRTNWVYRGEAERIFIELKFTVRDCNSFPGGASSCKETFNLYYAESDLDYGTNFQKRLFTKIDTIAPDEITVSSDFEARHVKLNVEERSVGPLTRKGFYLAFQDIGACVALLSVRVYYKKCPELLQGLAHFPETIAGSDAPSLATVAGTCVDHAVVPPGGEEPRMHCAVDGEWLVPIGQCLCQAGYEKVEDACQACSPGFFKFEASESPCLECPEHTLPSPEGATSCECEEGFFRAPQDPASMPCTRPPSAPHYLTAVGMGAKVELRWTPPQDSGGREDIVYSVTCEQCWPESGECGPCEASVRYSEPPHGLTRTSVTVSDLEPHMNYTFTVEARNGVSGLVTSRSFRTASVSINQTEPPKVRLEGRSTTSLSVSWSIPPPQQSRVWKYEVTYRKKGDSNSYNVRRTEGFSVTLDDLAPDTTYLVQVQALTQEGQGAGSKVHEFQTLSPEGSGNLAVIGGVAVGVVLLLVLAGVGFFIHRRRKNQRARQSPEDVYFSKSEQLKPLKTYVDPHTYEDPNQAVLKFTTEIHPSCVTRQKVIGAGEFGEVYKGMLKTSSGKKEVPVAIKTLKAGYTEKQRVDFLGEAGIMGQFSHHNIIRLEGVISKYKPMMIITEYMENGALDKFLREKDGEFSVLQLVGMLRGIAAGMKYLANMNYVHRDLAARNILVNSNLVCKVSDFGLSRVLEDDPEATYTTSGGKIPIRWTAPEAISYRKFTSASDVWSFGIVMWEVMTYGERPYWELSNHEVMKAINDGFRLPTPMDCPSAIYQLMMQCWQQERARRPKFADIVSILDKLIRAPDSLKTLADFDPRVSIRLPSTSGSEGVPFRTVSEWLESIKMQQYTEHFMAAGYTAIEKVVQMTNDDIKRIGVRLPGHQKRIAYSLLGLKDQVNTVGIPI

RIPK3 = RIPK3 (Homo sapiens, UniProt Q9Y572); assay: Human kinase panel at 100 nM; assay type: biochemical
Chain of RIPK3 (Q9Y572 whole entry): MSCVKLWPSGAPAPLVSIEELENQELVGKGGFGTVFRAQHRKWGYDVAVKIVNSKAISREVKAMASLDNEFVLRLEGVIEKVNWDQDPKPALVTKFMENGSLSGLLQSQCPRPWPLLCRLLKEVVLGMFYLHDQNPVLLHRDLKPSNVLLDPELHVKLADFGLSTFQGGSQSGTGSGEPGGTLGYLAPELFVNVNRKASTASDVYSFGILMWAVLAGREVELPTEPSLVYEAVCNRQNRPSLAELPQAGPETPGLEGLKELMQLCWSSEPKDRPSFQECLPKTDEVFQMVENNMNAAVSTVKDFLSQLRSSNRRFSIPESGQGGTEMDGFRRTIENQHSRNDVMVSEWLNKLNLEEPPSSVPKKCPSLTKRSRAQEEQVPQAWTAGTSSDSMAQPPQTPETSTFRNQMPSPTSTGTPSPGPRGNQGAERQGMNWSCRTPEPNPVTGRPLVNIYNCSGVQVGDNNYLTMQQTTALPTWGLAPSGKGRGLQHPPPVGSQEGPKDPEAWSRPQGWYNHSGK

ZAK/MLTK = ZAK/MLTK (Homo sapiens, UniProt Q9NYL2); assay: Human kinase panel at 100 nM; assay type: biochemical
Chain of ZAK/MLTK (Q9NYL2 whole entry): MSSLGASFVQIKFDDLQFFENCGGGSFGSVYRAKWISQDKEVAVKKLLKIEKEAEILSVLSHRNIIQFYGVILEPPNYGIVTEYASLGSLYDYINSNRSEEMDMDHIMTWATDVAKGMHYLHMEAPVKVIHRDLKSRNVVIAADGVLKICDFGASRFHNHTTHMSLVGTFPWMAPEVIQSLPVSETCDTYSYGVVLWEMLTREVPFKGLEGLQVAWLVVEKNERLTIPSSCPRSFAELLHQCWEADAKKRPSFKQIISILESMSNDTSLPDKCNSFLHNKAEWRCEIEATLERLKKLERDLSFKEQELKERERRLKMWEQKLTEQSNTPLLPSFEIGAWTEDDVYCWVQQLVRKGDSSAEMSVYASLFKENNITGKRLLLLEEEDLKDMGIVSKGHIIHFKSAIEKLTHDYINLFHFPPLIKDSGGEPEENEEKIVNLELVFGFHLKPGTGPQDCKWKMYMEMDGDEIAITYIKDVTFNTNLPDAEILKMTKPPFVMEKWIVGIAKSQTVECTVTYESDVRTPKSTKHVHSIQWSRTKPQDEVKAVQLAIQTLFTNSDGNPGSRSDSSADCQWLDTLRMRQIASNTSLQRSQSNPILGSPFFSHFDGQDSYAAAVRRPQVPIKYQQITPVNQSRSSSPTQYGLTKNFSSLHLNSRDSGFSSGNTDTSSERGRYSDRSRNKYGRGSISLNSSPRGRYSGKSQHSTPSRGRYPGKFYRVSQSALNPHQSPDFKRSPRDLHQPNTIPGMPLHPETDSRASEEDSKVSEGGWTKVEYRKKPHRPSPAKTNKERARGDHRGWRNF

KCL-22 = assay: Cytotoxicity, Ph+ CML model cell line; assay type: cell-based; details: Homo sapiens, read-out: IC50 (toxicity)
Tom-1 = assay: Cytotoxicity, Ph+ ALL model cell line; assay type: cell-based; details: Homo sapiens, read-out: IC50 (toxicity)
BaF3/BCR-ABL Y253F = assay: Toxicity to transduced BaF3 model tumor cell line; assay type: cell-based, murine; details: Mus musculus
BaF3/BCR-ABL E255K = assay: Toxicity to transduced BaF3 model tumor cell line; assay type: cell-based, murine; details: Mus musculus
MDA-MB-468 = assay: Cytotoxicity, breast cancer line; assay type: cell-based, human
SKOV-3 = assay: Cytotoxicity, ovarian cancer line; assay type: cell-based, human
[3] = system: marrow cells obtained from C57BL/6N line mice with induced acute leukemia; assay: Acute leukemia mouse model; assay type: in vivo; details: oral, 40 mg/kg (34 mg/kg as free base), 2 weeks
Experimental: To induce the pathology, marrow cells obtained from C57BL/6N line mice with induced acute leukemia were used. Cells were injected to the tail vein of an animal following administration of a sub lethal dose of radiation. Therapy was initiated on the 5th day after pathology induction and continued for 2 weeks.

in vivo [4] = details: for Vd / half-life / clearance / AUC / bioavailability: in vivo; for Vd: read-out: apparent volume of distribution Vd; for half-life: read-out: half-life period (converted); for clearance: intravenous administration; for bioavailability: read-out: bioavailability F
Description: Clearance following intravenous administration is quite high: 2.12 L/h/kg for dogs, 1.61 L/h/kg for rats. A large apparent volume of distribution (Vd=14.1 L/kg for dogs, 6.16 L/kg for rats) indicates extensive drug distribution in tissues.

CYP2C19 = CYP2C19 (Homo sapiens, UniProt P33261); assay: Metabolism study using cytochrome enzyme drugs; assay type: in vitro ADME; details: 2C19
Chain of CYP2C19 (P33261 whole entry): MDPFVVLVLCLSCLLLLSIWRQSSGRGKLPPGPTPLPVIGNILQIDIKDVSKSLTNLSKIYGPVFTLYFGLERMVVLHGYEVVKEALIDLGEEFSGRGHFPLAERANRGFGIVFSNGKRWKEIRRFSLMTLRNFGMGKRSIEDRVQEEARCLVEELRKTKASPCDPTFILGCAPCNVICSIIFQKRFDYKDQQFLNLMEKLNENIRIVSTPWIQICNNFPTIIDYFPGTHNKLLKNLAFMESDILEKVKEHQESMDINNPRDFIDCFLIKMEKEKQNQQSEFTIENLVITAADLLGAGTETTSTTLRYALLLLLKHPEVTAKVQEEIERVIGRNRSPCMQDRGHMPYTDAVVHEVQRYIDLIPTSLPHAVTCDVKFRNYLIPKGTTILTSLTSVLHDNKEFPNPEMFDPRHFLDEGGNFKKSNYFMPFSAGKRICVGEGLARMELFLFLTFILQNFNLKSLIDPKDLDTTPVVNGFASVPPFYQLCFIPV

mice = assay: Acute toxicity studies, mice; assay type: in vivo
[5] = MTD at a single administration to dogs; details: dog, in vivo
Experimental: The MTD of the drug at a single administration to dogs was 45 mg/kg (38 mg/kg calculated as a free base).

Guinea pigs and mice = assay: Allergenic properties (anaphylaxis, ITH, DTH and related models); assay type: in vivo, Guinea pig; mice; details: all models studied
Description: To identify allergenic properties, the following methods were used: evaluation of anaphylactogenic activity using Guinea pig general systemic anaphylaxis and active cutaneous anaphylaxis models; evaluation of immediate-type hypersensitivity (ITH) reaction and delayed-type hypersensitivity (DTH) reaction in Guinea pigs following epicutaneous and conjunctival drug application; evaluation of DTH reaction in mice; study of the inflammation reaction to A concanavalin in mice; measuring of eosinophil blood count, evaluation of the effect on phagocyte neutrophil activity (Nitro Blue-Tetrazolium Test (NBT)), and leukocyte specific lysis reaction scenario using a Guinea pig model with subcutaneous administration of the drug.

murine marrow cells = assay: Gene toxicity: metaphase chromosome aberration assay; assay type: in vivo; details: all doses tested
A549 = details: oral, 25 mg/kg (21 mg/kg as free base), 20 days
Experimental: Thymus-deprived male mice were used in the studies. A549 (1×10^7 cells) were injected with 0.2 mL of matrigel solution (BD Pharmingen) into the left leg of a mouse under ketamine/xylazine anesthesia. In a week after the injections, mice were distributed between therapeutic and control groups that were randomized by tumor size. Oral administration of the methanesulfonic acid salt of 3-(1,2,4-triazolo[4,3-a]pyridine-3-ylethynyl)-4-methyl-N-(4-((4-methylpiperazine-1-yl)methyl)-3-trifluoromethylphenyl)benzamide at a dose of 25 mg/kg (equivalent to 21 mg/kg calculated as the free base) was started on the next day after randomization and continued for 20 days. To determine the efficacy of tumor growth inhibition, the average size ratio was calculated for the therapeutic/control groups (% T/C).

Bcr-Abl (T315I) = Bcr-Abl (T315I) (Homo sapiens, UniProt P00519, T315I, form not given); assay: Bcr-Abl tyrosine kinase enzyme activity; details: 3 independent experiments
Bcr-Abl (H396P) = Bcr-Abl (H396P) (Homo sapiens, UniProt P00519, H396P, form not given); assay: Bcr-Abl tyrosine kinase enzyme activity
Bcr-Abl (Y253F) = Bcr-Abl (Y253F) (Homo sapiens, UniProt P00519, Y253F, form not given); assay: Bcr-Abl tyrosine kinase enzyme activity

With `CS(=O)(=O)O.Cc1ccc(C(=O)Nc2ccc(CN3CCN(C)CC3)c(C(F)(F)F)c2)cc1C#Cc1nnc2ccccn12` [methanesulfonic acid salt, 3-(1,2,4-triazolo[4,3-a]pyridine-3-ylethynyl)-4-methyl-N-(4-((4-methylpiperazin-1-yl)methyl)-3-trifluoromethylphenyl)benzamide mono methanesulfonic acid salt] as the compound, how does the “crystalline structure after suspending in acetone” value ([1]; acetone, 6 days) read?
The value was “remained unchanged”.

And the “Crystallinity in 6 days” value ([1]; suspending in acetone for 6 days, room temperature)?
The value was “Cryst”.

What about the Cmax (in vivo [2]) of the same compound?
The Cmax was 1100 ng/mL.

What about the inhibition at 0.1 µM (BLK) of the same compound?
The inhibition at 0.1 µM was over 50%.

And the inhibition at 0.1 µM (EPHA2)?
The inhibition at 0.1 µM was over 50%.

What about the inhibition at 0.1 µM (RIPK3) of the same compound?
Its inhibition at 0.1 µM is over 50%.

And the inhibition at 0.1 µM (ZAK/MLTK)?
The inhibition at 0.1 µM was over 50%.

What about the IC50 (KCL-22) of the same compound?
Its IC50 is 9 nM.

What about the IC50 (Tom-1) of the same compound?
The IC50 was 5 nM.

What about the IC50 (BaF3/BCR-ABL Y253F) of the same compound?
The IC50 was 25 nM.

And the IC50 (BaF3/BCR-ABL E255K)?
The IC50 was 25 nM.

What about the cytotoxicity (MDA-MB-468) of the same compound?
Its cytotoxicity is “showed cytotoxicity”.

What about the cytotoxicity (SKOV-3) of the same compound?
The cytotoxicity was “showed cytotoxicity”.

And the “increase of average lives compared to the control group” value [3]?
The value was “more than 25%”.

What about the Vd (in vivo [4]; dog, dogs) of the same compound?
The Vd was 14.1 L/kg.

And the half-life (in vivo [4]; dog, dogs)?
The half-life was about 7 h.

And the clearance (in vivo [4]; dog, dogs)?
The clearance was 35.3 mL/min/kg.

And the AUC (in vivo [4]; dog, oral, dogs, 2 mg/kg)?
The AUC was 420 ng·h/mL.

What about the AUC (in vivo [4]; dog, oral, dogs, 22 mg/kg) of the same compound?
The AUC was 5480 ng·h/mL.

And the AUC (in vivo [4]; dog, oral, dogs, 45 mg/kg)?
Its AUC is 5170 ng·h/mL.

And the bioavailability (in vivo [4]; dog, oral, dogs, 2 to 22 mg/kg (2 to 19 mg/kg as free base))?
Its bioavailability is 45.9 to 66.1%.

What about the maximum plasma concentration (in vivo [4]; oral, dogs, 2 to 45 mg/kg) of the same compound?
Its maximum plasma concentration is 31.8 to 224 ng/mL.

And the “time to maximum plasma concentration” value (in vivo [4]; oral, dogs, 2 to 45 mg/kg)?
The value was 3 to 8.5 h.

And the maximum concentration (in vivo [4]; oral, rats, 5 mg/kg)?
Its maximum concentration is 72 ng/mL.

What about the maximum concentration (in vivo [4]; oral, rats, 80 mg/kg) of the same compound?
The maximum concentration was 1250 ng/mL.

And the “time to maximum concentration” value (in vivo [4]; oral, rats, 5 to 80 mg/kg)?
The value was 2.3 to 5.3 h.

And the clearance (in vivo [4]; rat, rats)?
The clearance was 26.8 mL/min/kg.

And the AUC (in vivo [4]; rat, oral, rats, 5 mg/kg)?
Its AUC is 430 ng·h/mL.

And the AUC (in vivo [4]; rat, oral, rats, 80 mg/kg)?
The AUC was 21100 ng·h/mL.

And the bioavailability (in vivo [4]; rat, oral, rats, 5 to 80 mg/kg (4.2 to 68 mg/kg as free base))?
Its bioavailability is 13.8 to 59.5%.

And the Vd (in vivo [4]; rat, rats)?
The Vd was 6.16 L/kg.

And the half-life (in vivo [4]; rat, rats)?
The half-life was about 3 h.

What about the “participation of the isoform in metabolism” value (CYP2C19) of the same compound?
Its value is “does not involve”.

And the LD10 (mice; calculated as the free base)?
Its LD10 is 678 mg/kg.

What about the LD10 (mice; dose of the salt) of the same compound?
The LD10 was 800 mg/kg.

And the MTD ([5]; calculated as a free base)?
Its MTD is 38 mg/kg.

And the MTD ([5]; dose of the salt)?
The MTD was 45 mg/kg.

What about the allergenic activity (Guinea pigs and mice) of the same compound?
Its allergenic activity is “did not display any detectable allergenic activity”.

And the genotoxic effects (murine marrow cells)?
Its genotoxic effects is “had no genotoxic effects”.

What about the Equilibrium solubility (deionized water, HPLC analysis, listed as HAL-G-196-20) of the same compound?
Its Equilibrium solubility is over 100 mg/mL.

What about the pH (equilibrium solubility test in water) of the same compound?
Its pH is 3.6.

And the “Crystallinity in 24 h” value (solid in water, equilibrium solubility test)?
The value was “Dissolution”.

What about the “solubility relative to the free base” value (water) of the same compound?
The value was 10,000 fold.

And the “T/C (average tumor size ratio therapeutic/control)” value (A549)?
The value was under 35%.

And the IC50 (Bcr-Abl (T315I))?
Its IC50 is 0.78 to 21 nM.

And the IC50 (Bcr-Abl (H396P))?
The IC50 was 1 nM.

And the IC50 (Bcr-Abl (Y253F))?
The IC50 was 4.1 nM.

From US11225474B2, “Crystalline salt forms of 3-(1,2,4-triazolo[4,3-a]pyridine-3-ylethynyl)-4-methyl-N-(4-((4-methylpiperazin-1-yl)methyl)-3-trifluoromethylphenyl)benzamide for medical application” (priority 2016, dated 2022)
